These results are taken from patent US6518243B1, “Desleucyl glycopeptide antibiotics and methods of making same” (Trustees of Princeton University, priority 1999, dated 2003).

A value given as a limit tells only on which side of the number the result lay.

What all share (assay type): cell-based
Assay [1] relates to S. aureus (ATCC 29213). The assay can be described thus: Zone of inhibition screen, 96 well agar array format. On the set-up: scale not given here. As to conditions: zone of inhibition relative to 1 mg/ml stock solution of p-chlorobiphenylvancomycin. The essentials: (§1)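 Compounds are screened one by one for antibacterial effect in an agar array of 96 wells, using the same set of strains throughout.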

Assay [2] deals with E. faecalis (CL 4877). The assay is described as above. Further details: scale not given here. As to conditions: zone of inhibition relative to 1 mg/ml stock solution of p-chlorobiphenylvancomycin. The method, boiled down: as §1
In assay [3] the test system is S. Aureus ATCC 33591. In words: MIC determination in BHI media, OD600. The note with it: BHI + 0.1% casamino acids, 18 hours at 37° C., ≧90% OD600 inhibition. Here is the method:
(§2) Logarithmically growing cells were diluted to approximately 5×10^5 CFU/ml and subjected to test compounds solubilized and serially diluted in DMSO. […] After 18 hours at 37° C., the OD600 was determined by reading the ninety-six well microtiter plates on a microplate reader. For a given concentration, an MIC determination was made if: […]

Assay [4] relates to E. faecium CL 4931. The assay can be described thus: MIC determination in BHI media, OD600. As to conditions: BHI + 0.1% casamino acids, 18 hours at 37° C., ≧90% OD600 inhibition. As for the experimental part:
as §2

The subject of assay [5] is S aureus ATCC 29213. The assay can be described thus: MIC determination in BHI media, OD600. As to conditions: BHI + 0.1% casamino acids, 18 hours at 37° C., ≧90% OD600 inhibition. Here is the method: as §2
Assay [6] concerns E. faecium ATCC 49624. The assay can be described thus: MIC determination in BHI media, OD600. The note with it: BHI + 0.1% casamino acids, 18 hours at 37° C., ≧90% OD600 inhibition. Here is the method: as §2
Assay [7] has as its system S. epidermidis (ATCC 12228). In words: Zone of inhibition screen, 96 well agar array format. As to conditions: zone of inhibition relative to 1 mg/ml stock solution of p-chlorobiphenylvancomycin. Further details: scale not given here. The essentials: as §1

Take `C[C@H]1O[C@H](O[C@H]2[C@H](Oc3c4cc5cc3Oc3ccc(cc3Cl)[C@@H](O)[C@@H](NC(=O)[C@@H](N)CCC(=O)OCc3ccccc3)C(=O)N[C@@H](CC(N)=O)C(=O)N[C@H]5C(=O)N[C@H]3C(=O)N[C@H](C(=O)N[C@@H](C(=O)O)c5cc(O)cc(O)c5-c5cc3ccc5O)[C@H](O)c3ccc(c(Cl)c3)O4)O[C@H](CO)[C@@H](O)[C@@H]2O)C[C@@](C)(NCc2ccc(-c3ccc(Cl)cc3)cc2)[C@H]1O` [Compound 26]: the “zone score, S. aureus ATCC 29213” value in assay [1] stood at 2. Besides, the “zone score, E. faecalis CL 4877” value in assay [2] was found to be 2. In assay [3], the MIC S. aureus ATCC 33591 came to 0.78 µg/mL. In addition, the MIC E. faecium CL 4931 in assay [4] was above 25 µg/mL. Besides, the MIC S. aureus ATCC 29213 in assay [5] was determined as 0.78 µg/mL.

For `CC1OC(OC2C(Oc3c4cc5cc3Oc3ccc(cc3Cl)C(O)C3NC(=O)C(NC(=O)C5NC(=O)C(CC(N)=O)NC(=O)C(NC(=O)C(N)CO)C(O)c5ccc(c(Cl)c5)O4)c4ccc(O)c(c4)-c4c(O)cc(O)cc4C(C(=O)O)NC3=O)OC(CO)C(O)C2O)CC(C)(NCc2ccc(-c3ccc(Cl)cc3)cc2)C1O` (centres unmarked) [Compound 63], the “zone score, S. aureus ATCC 29213” value in assay [1] worked out at 2. Further, the “zone score, E. faecalis CL 4877” value in assay [2] worked out at 2. For the same compound, the MIC S. aureus ATCC 33591 in assay [3] is 0.78 µg/mL. Besides, the MIC E. faecium ATCC 49624 in assay [6] was 0.78 µg/mL. The MIC E. faecium CL 4931 in assay [4] is 25 µg/mL. Further, in assay [5], the MIC S. aureus ATCC 29213 was found to be 0.78 µg/mL.

On to `CC1OC(OC2C(Oc3c4cc5cc3Oc3ccc(cc3Cl)C(O)C3NC(=O)C(NC(=O)C5NC(=O)C(CC(N)=O)NC(=O)C(NC(=O)C(N)CCC(N)=O)C(O)c5ccc(c(Cl)c5)O4)c4ccc(O)c(c4)-c4c(O)cc(O)cc4C(C(=O)O)NC3=O)OC(CO)C(O)C2O)CC(C)(NCc2ccc(-c3ccc(Cl)cc3)cc2)C1O` (centres unmarked) [Compound 91], for which the “zone score, S. epidermidis ATCC 12228” value in assay [7] was determined as 2. Also, the MIC S. aureus ATCC 33591 in assay [3] worked out at 0.78 µg/mL. Besides, in assay [6], the MIC E. faecium ATCC 49624 worked out at 0.78 µg/mL. Further, the MIC E. faecium CL 4931 in assay [4] is 25 µg/mL. For the same compound, the MIC S. aureus ATCC 29213 in assay [5] was 0.78 µg/mL.

`CC1OC(OC2C(Oc3c4cc5cc3Oc3ccc(cc3Cl)C(O)C3NC(=O)C(NC(=O)C5NC(=O)C(CC(N)=O)NC(=O)C(NC(=O)C(N)COCc5ccccc5)C(O)c5ccc(c(Cl)c5)O4)c4ccc(O)c(c4)-c4c(O)cc(O)cc4C(C(=O)O)NC3=O)OC(CO)C(O)C2O)CC(C)(NCc2ccc(-c3ccc(Cl)cc3)cc2)C1O` (centres unmarked) [Compound 342]: the MIC S. aureus ATCC 33591 in assay [3] was 0.78 µg/mL. In assay [6], the MIC E. faecium ATCC 49624 was 0.39 µg/mL. Also, in assay [4], the MIC E. faecium CL 4931 amounted to 25 µg/mL. Besides, the MIC S. aureus ATCC 29213 in assay [5] turned out to be 0.78 µg/mL.

With `CC1OC(OC2C(Oc3c4cc5cc3Oc3ccc(cc3Cl)C(O)C3NC(=O)C(NC(=O)C5NC(=O)C(CC(N)=O)NC(=O)C(NC(=O)C(N)CSSC(C)(C)C)C(O)c5ccc(c(Cl)c5)O4)c4ccc(O)c(c4)-c4c(O)cc(O)cc4C(C(=O)O)NC3=O)OC(CO)C(O)C2O)CC(C)(NCc2ccc(-c3ccc(Cl)cc3)cc2)C1O` (centres unmarked) [Compound 345], the MIC S. aureus ATCC 33591 in assay [3] turned out to be 0.78 µg/mL. Moreover, the MIC E. faecium ATCC 49624 in assay [6] worked out at 0.39 µg/mL. Also, the MIC E. faecium CL 4931 in assay [4] was determined as 25 µg/mL. In addition, in assay [5], the MIC S. aureus ATCC 29213 worked out at 0.78 µg/mL.

Consider `CCOCC(N)C(=O)NC1C(=O)NC(CC(N)=O)C(=O)NC2C(=O)NC3C(=O)NC(C(=O)NC(C(=O)O)c4cc(O)cc(O)c4-c4cc3ccc4O)C(O)c3ccc(c(Cl)c3)Oc3cc2cc(c3OC2OC(CO)C(O)C(O)C2OC2CC(C)(NCc3ccc(-c4ccc(Cl)cc4)cc3)C(O)C(C)O2)Oc2ccc(cc2Cl)C1O` (centres unmarked) [Compound 524], for which the MIC S. aureus ATCC 33591 in assay [3] amounted to 0.39 µg/mL. Moreover, the MIC E. faecium ATCC 49624 in assay [6] was determined as 0.25 µg/mL. In addition, in assay [4], the MIC E. faecium CL 4931 was found to be 25 µg/mL. Further, the MIC S. aureus ATCC 29213 in assay [5] is 0.39 µg/mL.

As to `CCOCC(NC)C(=O)NC1C(=O)NC(CC(N)=O)C(=O)NC2C(=O)NC3C(=O)NC(C(=O)NC(C(=O)O)c4cc(O)cc(O)c4-c4cc3ccc4O)C(O)c3ccc(c(Cl)c3)Oc3cc2cc(c3OC2OC(CO)C(O)C(O)C2OC2CC(C)(NCc3ccc(-c4ccc(Cl)cc4)cc3)C(O)C(C)O2)Oc2ccc(cc2Cl)C1O` (centres unmarked) [Compound 527], the MIC S. aureus ATCC 33591 in assay [3] turned out to be 0.39 µg/mL. Moreover, the MIC E. faecium ATCC 49624 in assay [6] is 0.25 µg/mL. Besides, in assay [4], the MIC E. faecium CL 4931 came out at 25 µg/mL. The MIC S. aureus ATCC 29213 in assay [5] was 0.39 µg/mL.
